Data reported in patent US20100029752A1, “NOVEL COMPOUNDS, PHARMACEUTICAL COMPOSITIONS CONTAINING SAME, AND METHODS OF USE FOR SAME” (priority 2005, published 2010).
≈ marks a conversion by molar mass, not a printed value. Where two headings read alike, the source gives them in different places.

Columns and labels:
[1] = system: Escherichia coli (ATCC # 25922); assay: Broth microdilution MIC, E. coli; type: cell-based; conditions: for MIC: Escherichia coli, ATCC25922
Experimental: (§1) A broth microdilution assay is used to assess the antimicrobial activity of the compounds. […] Microorganisms tested include Staphylococcus aureus (ATCC # 29213), Enterococcus faecalis (ATCC # 29212), Pseudomonas aeruginosa (ATCC # 27853), and Escherichia coli (ATCC # 25922). The assay is performed in two growth media, Mueller Hinton Broth and Trypticase Soy Broth. A blood (Tsoy/5% sheep blood) agar plate is inoculated from frozen stocks maintained in T soy broth containing 10% glycerol and incubated overnight at 37° C. Colonies are suspended in sterile broth so that the turbidity matches the turbidity of a 0.5 McFarland standard. The inoculum is diluted 1:10 in sterile broth (Mueller Hinton or Trypticase soy) and 195 ul is dispensed per well of a 96-well plate. The compounds to be tested, dissolved in DMSO, are added to the wells in 5 ul volume at the following concentrations: 25, 12.5, 6.25, 3.125, 1.56 and 0.78 ug/ml in duplicate. Additional concentrations are tested if required. 5 ul of DMSO added to duplicate wells are the vehicle control. Serial dilutions of positive control compounds, vancomycin (E. faecalis and S. aureus) and tobramycin (E. coli and P. aeruginosa), are included in each run. After 24 hours of incubation at 37° C., plates are read at OD600 on a Molecular Devices SpectraMax Plus Spectrophotometer. Average OD600 values are computed using SOFTmax Pro Software (Molecular Devices) and MIC values are determined by linear regression analysis using Prism version 3.02 (Graph Pad Software, San Diego). The MIC is defined as the concentration of compound required to produce an OD600 reading equivalent to 10% of the vehicle control reading.

[2] = system: Enterococcus faecalis (ATCC # 29212); assay: Broth microdilution MIC, E. faecalis; type: cell-based; conditions: for MIC: Enterococcus faecalis, ATCC29212
Experimental: as §1

[3] = system: Pseudomonas aeruginosa (ATCC # 27853); assay: Broth microdilution MIC, P. aeruginosa; type: cell-based; conditions: for PSAE/MH (MIC): Mueller Hinton Broth
Experimental: as §1

[4] = system: Staphylococcus aureus (ATCC # 29213); assay: Broth microdilution MIC, S. aureus; type: cell-based; conditions: for MIC: Staphylococcus aureus, ATCC29213
Experimental: as §1

[5] = Weight loss screen; type: in vivo, Balb/C mice; conditions: 60 mg/kg intraperitoneally
Experimental: Balb/C mice (Jackson Labs) are utilized for the initial weight loss screening. Animals are housed in temperature and 12 hour day/night cycle rooms and fed mouse chow and water ad lib. Three mice are utilized for each compound tested with vehicle controls in triplicate per experiment. For the experiments, mice are housed separately for each compound tested three mice to a cage. Compounds are diluted in DMSO at 10 mg/ml and mice are injected intraperitoneally with 60 mg/kg in approximately 100 μl of DMSO or with vehicle alone. Mice are observed and weighed daily; average weights and standard errors are computed with Excel (Microsoft). The experiment continues until treated animals reach their pretreatment weights. Select compounds are tested in animals housed in metabolic cages. Dosing of animals are identical to the screening experiments with three animals to a single metabolic cage. Animal weights, water and food consumption, and urine and feces production are measured daily.

[6] = biological target: T1, FAS (Homo sapiens, UniProt P49327); assay: FAS (IC50) marked (SB); type: biochemical; conditions: value marked (SB), not defined
T1 construct: Human FAS was purified from cultured ZR-75-1 human breast cancer cells; endogenous in cells
T1 sequence (P49327 whole entry): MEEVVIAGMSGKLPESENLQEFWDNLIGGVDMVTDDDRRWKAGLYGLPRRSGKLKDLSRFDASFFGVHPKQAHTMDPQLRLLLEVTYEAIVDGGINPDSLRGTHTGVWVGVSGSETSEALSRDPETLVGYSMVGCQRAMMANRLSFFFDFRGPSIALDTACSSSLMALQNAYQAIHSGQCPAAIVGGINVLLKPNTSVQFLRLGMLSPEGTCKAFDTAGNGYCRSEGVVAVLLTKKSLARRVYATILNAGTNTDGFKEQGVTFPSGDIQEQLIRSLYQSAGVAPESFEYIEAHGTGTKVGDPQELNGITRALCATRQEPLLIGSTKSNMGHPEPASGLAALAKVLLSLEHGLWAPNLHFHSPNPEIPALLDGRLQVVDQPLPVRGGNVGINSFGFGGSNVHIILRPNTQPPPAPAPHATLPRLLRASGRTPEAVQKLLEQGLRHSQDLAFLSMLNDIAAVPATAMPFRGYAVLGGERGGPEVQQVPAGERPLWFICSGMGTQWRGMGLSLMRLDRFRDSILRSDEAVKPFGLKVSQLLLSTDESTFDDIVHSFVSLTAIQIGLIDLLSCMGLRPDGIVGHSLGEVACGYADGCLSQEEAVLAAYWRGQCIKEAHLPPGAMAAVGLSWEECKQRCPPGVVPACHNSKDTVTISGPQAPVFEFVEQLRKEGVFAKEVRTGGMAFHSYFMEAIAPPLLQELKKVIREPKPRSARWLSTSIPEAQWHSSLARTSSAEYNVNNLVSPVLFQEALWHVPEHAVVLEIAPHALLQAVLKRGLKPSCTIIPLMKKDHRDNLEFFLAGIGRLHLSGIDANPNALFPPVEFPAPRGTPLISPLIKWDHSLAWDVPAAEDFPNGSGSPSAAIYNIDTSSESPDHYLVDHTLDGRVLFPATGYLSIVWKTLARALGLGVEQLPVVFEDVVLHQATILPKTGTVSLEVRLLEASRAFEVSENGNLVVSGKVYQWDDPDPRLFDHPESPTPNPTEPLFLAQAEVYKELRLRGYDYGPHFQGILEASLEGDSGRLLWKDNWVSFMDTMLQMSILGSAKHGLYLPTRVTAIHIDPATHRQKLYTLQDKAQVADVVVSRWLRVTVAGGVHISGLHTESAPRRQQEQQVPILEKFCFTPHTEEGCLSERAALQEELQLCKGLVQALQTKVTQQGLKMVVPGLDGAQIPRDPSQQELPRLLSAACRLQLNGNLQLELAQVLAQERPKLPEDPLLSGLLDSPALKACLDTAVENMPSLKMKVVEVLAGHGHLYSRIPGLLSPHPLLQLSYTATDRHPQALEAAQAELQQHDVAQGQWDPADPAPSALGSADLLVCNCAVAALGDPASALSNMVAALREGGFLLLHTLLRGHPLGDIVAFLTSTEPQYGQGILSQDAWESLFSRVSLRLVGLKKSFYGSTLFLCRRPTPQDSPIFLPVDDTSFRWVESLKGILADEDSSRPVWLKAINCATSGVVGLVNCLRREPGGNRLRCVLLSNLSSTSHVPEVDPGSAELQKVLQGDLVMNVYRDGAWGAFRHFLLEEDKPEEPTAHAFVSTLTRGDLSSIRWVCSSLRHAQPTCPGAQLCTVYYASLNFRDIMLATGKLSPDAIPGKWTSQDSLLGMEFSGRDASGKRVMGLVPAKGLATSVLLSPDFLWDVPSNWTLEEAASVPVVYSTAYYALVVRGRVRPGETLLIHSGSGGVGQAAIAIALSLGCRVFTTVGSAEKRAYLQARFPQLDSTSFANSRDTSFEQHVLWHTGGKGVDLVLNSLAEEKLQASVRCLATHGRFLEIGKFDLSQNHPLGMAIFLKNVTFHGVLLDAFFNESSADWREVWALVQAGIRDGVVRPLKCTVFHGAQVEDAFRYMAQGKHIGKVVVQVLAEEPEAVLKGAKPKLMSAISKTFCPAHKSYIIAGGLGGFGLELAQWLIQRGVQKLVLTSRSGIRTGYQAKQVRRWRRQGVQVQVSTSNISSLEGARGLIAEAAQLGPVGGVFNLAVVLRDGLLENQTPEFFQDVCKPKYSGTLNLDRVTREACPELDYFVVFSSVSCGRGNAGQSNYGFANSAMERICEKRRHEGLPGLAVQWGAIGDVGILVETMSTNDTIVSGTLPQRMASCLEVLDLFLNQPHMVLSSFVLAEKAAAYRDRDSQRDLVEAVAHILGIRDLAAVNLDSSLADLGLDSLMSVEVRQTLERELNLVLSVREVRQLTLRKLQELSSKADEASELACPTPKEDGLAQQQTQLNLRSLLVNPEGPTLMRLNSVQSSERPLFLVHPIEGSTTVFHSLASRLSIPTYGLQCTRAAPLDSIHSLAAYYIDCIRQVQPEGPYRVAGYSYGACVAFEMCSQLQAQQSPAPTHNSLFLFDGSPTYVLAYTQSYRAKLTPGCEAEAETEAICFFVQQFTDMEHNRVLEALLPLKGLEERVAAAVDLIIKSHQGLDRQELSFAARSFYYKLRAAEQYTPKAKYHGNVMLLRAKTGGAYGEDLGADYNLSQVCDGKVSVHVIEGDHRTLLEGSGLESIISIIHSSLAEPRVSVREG

[7] = Mueller Hinton Broth, read-out: EF/MH (MIC)
[8] = Mueller Hinton Broth, read-out: SA/MH (MIC)
[9] = Trypticase Soy Broth, read-out: EF/Tsoy (MIC)

| Ecoli/MH (MIC) ([1]; Mueller Hinton Broth) | Ecoli/Tsoy (MIC) ([1]; Trypticase Soy Broth) | MIC [2, 7] [µg/mL] | EF/Tsoy (MIC) ([2]; Trypticase Soy Broth) | PSAE/MH (MIC) [3] | PSAE/Tsoy (MIC) ([3]; Trypticase Soy Broth) | MIC [4, 8] [µg/mL] | SA/Tsoy (MIC) ([4]; Trypticase Soy Broth) | EF/MH (MIC) ([2]; Mueller Hinton Broth) | SA/MH (MIC) ([4]; Mueller Hinton Broth) | MIC [2, 9] [µg/mL] | MIC ([1]; Mueller Hinton Broth, read-out: Ecoli/MH (MIC)) [µg/mL] | IC50 [6] [µM] | MIC ([4]; Trypticase Soy Broth, read-out: SA/Tsoy (MIC)) [µg/mL] | MIC ([1]; Trypticase Soy Broth, read-out: Ecoli/Tsoy (MIC)) [µg/mL] | MIC ([3]; Pseudomonas aeruginosa, ATCC27853, Trypticase Soy Broth, read-out: PSAE/Tsoy (MIC)) [µg/mL] | SMILES | Weight Loss ([5]; day 1) | Weight Loss ([5]; day 2) |
| --- | --- | --- | --- | --- | --- | --- | --- | --- | --- | --- | --- | --- | --- | --- | --- | --- | --- | --- |
| Neg | Neg | 101 (≈ 500 µM) | Neg | Neg | Neg | 149 (≈ 737 µM) | Neg | – | – | – | – | – | – | – | – | COC(=O)c1sc(C(=O)O)cc1O | – | – |
| Neg | Neg | – | Neg | Neg | Neg | – | Neg | Neg | Neg | – | – | – | – | – | – | CCCCCCCCNC(=O)c1cc(O)c(C(=O)OC)s1 | – | – |
| Neg | Neg | 88 (≈ 365 µM) | – | Neg | Neg | 80 (≈ 332 µM) | Neg | – | – | 134 (≈ 555 µM) | – | – | – | – | – | C=CCNC(=O)c1cc(O)c(C(=O)OC)s1 | 60 mg/kg: +2.3% (day 1) | – |
| – | Neg | – | Neg | Neg | Neg | 66 (≈ 202 µM) | – | Neg | – | – | 136 (≈ 416 µM) | 305 | 227 (≈ 695 µM) | – | – | COC(=O)c1sc(C(=O)NNc2ccc(Cl)cc2)cc1O | 60 mg/kg: +1.2% (day 1) | – |
| Neg | – | – | – | Neg | (MIC) Neg | 82 (≈ 321 µM) | Neg | Neg | – | 123 (≈ 482 µM) | – | 325 | – | 89 (≈ 348 µM) | 83 (≈ 325 µM) | CCCCCCCCNC(=O)c1cc(O)cs1 | – | 60 mg/kg: 1.6% (day 2) |
